Assay results as given in PubChem BioAssay AID1963961 (Molecular Pharmacology Branch, DTP, NCI, 2024).

Tested on: K98450-129-R-PDC multicell spheroids, viability
Experiment: Anticancer human tumor K98450-129-R-PDC patient-derived colon adenocarcinoma cell line growth inhibition [PI3K]
Settings: for IC50: curve of first compound; for viability, T/C: stronger effect = lower value
In short: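 High-throughput combination screen: PI3K inhibitors crossed with targeted small molecules on complex spheroids of tumor cells, HUVEC and MSCs at 37 degrees C, 5% CO2. Top concentration was at or near clinical Cmax (otherwise 10 microM), with half-log decrements.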

[1] = second compound 0.0316 µM, first compound 0.0316 µM
[2] = second compound 0.0316 µM, first compound 0.1 µM
[3] = second compound 0.1 µM, first compound 0.0316 µM
[4] = second compound 0.1 µM, first compound 0.1 µM
[5] = second compound 0.316 µM, first compound 0.0316 µM
[6] = second compound 0.316 µM, first compound 0.1 µM
[7] = second compound 1 µM, first compound 0.0316 µM
[8] = second compound 1 µM, first compound 0.1 µM
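Further: spheroids exposed to agents for seven days before read-out.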

Cn1cnc2c(F)c(Nc3ccc(Br)cc3Cl)c(C(=O)NOCCO)cc21 + CC(Nc1ccc2c(c1)OCCn1cc(N3C(=O)OCC3C(F)F)nc1-2)C(N)=O
IC50 (second compound 0.00316 µM): 1330 nM | IC50 (second compound 0.01 µM): 1150 nM | IC50 (second compound 0.0316 µM): 1190 nM | IC50 (second compound 0.1 µM): 1240 nM | IC50 (second compound 0.316 µM): 857 nM | IC50 (second compound 1 µM): 605 nM | viability, T/C (second compound 0.00316 µM, first compound 0.00949 µM): 105% | viability, T/C (second compound 0.00316 µM, first compound 0.03 µM): 86.9% | viability, T/C (second compound 0.00316 µM, first compound 0.0949 µM): 95.5% | viability, T/C (second compound 0.00316 µM, first compound 0.3 µM): 76.1% | viability, T/C (second compound 0.00316 µM, first compound 0.949 µM): 62.1% | viability, T/C (second compound 0.00316 µM, first compound 3 µM): 25.7% | viability, T/C (second compound 0.01 µM, first compound 0.00949 µM): 102% | viability, T/C (second compound 0.01 µM, first compound 0.03 µM): 88.7% | viability, T/C (second compound 0.01 µM, first compound 0.0949 µM): 91% | viability, T/C (second compound 0.01 µM, first compound 0.3 µM): 75.4% | viability, T/C (second compound 0.01 µM, first compound 0.949 µM): 56.3% | viability, T/C (second compound 0.01 µM, first compound 3 µM): 21.9% | viability, T/C (second compound 0.0316 µM, first compound 0.00949 µM): 99.3% | viability, T/C (second compound 0.0316 µM, first compound 0.03 µM): 93.4% | viability, T/C (second compound 0.0316 µM, first compound 0.0949 µM): 83% | viability, T/C (second compound 0.0316 µM, first compound 0.3 µM): 75.3% | viability, T/C (second compound 0.0316 µM, first compound 0.949 µM): 62.1% | viability, T/C (second compound 0.0316 µM, first compound 3 µM): 17.7% | viability, T/C (second compound 0.1 µM, first compound 0.00949 µM): 89.5% | viability, T/C (second compound 0.1 µM, first compound 0.03 µM): 81.8% | viability, T/C (second compound 0.1 µM, first compound 0.0949 µM): 85.6% | viability, T/C (second compound 0.1 µM, first compound 0.3 µM): 76.5% | viability, T/C (second compound 0.1 µM, first compound 0.949 µM): 60.5% | viability, T/C (second compound 0.1 µM, first compound 3 µM): 16.7% | viability, T/C (second compound 0.316 µM, first compound 0.00949 µM): 83.7% | viability, T/C (second compound 0.316 µM, first compound 0.03 µM): 83.5% | viability, T/C (second compound 0.316 µM, first compound 0.0949 µM): 82.5% | viability, T/C (second compound 0.316 µM, first compound 0.3 µM): 72.2% | viability, T/C (second compound 0.316 µM, first compound 0.949 µM): 48% | viability, T/C (second compound 0.316 µM, first compound 3 µM): 11.1% | viability, T/C (second compound 1 µM, first compound 0.00949 µM): 76.6% | viability, T/C (second compound 1 µM, first compound 0.03 µM): 77.5% | viability, T/C (second compound 1 µM, first compound 0.0949 µM): 78.2% | viability, T/C (second compound 1 µM, first compound 0.3 µM): 66.8% | viability, T/C (second compound 1 µM, first compound 0.949 µM): 38.9% | viability, T/C (second compound 1 µM, first compound 3 µM): 9.63%

Cn1ncnc1[C@H]1c2n[nH]c(=O)c3cc(F)cc(c23)N[C@@H]1c1ccc(F)cc1 + CC(Nc1ccc2c(c1)OCCn1cc(N3C(=O)OCC3C(F)F)nc1-2)C(N)=O
IC50 (second compound 0.00316 µM): > 100 nM | IC50 (second compound 0.01 µM): > 100 nM | IC50 (second compound 0.0316 µM): > 100 nM | IC50 (second compound 0.1 µM): > 100 nM | IC50 (second compound 0.316 µM): > 100 nM | IC50 (second compound 1 µM): > 100 nM | viability, T/C (second compound 0.00316 µM, first compound 0.000316 µM): 112% | viability, T/C (second compound 0.00316 µM, first compound 0.001 µM): 92.8% | viability, T/C (second compound 0.00316 µM, first compound 0.00316 µM): 100% | viability, T/C (second compound 0.00316 µM, first compound 0.01 µM): 96.5% | viability, T/C (second compound 0.00316 µM, first compound 0.0316 µM): 102% | viability, T/C (second compound 0.00316 µM, first compound 0.1 µM): 95.4% | viability, T/C (second compound 0.01 µM, first compound 0.000316 µM): 114% | viability, T/C (second compound 0.01 µM, first compound 0.001 µM): 92.8% | viability, T/C (second compound 0.01 µM, first compound 0.00316 µM): 99.2% | viability, T/C (second compound 0.01 µM, first compound 0.01 µM): 93.8% | viability, T/C (second compound 0.01 µM, first compound 0.0316 µM): 95.9% | viability, T/C (second compound 0.01 µM, first compound 0.1 µM): 94.3% | viability, T/C (second compound 0.0316 µM, first compound 0.000316 µM): 104% | viability, T/C (second compound 0.0316 µM, first compound 0.001 µM): 99% | viability, T/C (second compound 0.0316 µM, first compound 0.00316 µM): 89.3% | viability, T/C (second compound 0.0316 µM, first compound 0.01 µM): 100% | viability, T/C [1]: 98.5% | viability, T/C [2]: 96.9% | viability, T/C (second compound 0.1 µM, first compound 0.000316 µM): 92% | viability, T/C (second compound 0.1 µM, first compound 0.001 µM): 100% | viability, T/C (second compound 0.1 µM, first compound 0.00316 µM): 99% | viability, T/C (second compound 0.1 µM, first compound 0.01 µM): 95.1% | viability, T/C [3]: 104% | viability, T/C [4]: 89.8% | viability, T/C (second compound 0.316 µM, first compound 0.000316 µM): 90.6% | viability, T/C (second compound 0.316 µM, first compound 0.001 µM): 89.5% | viability, T/C (second compound 0.316 µM, first compound 0.00316 µM): 96% | viability, T/C (second compound 0.316 µM, first compound 0.01 µM): 91.6% | viability, T/C [5]: 100% | viability, T/C [6]: 92.6% | viability, T/C (second compound 1 µM, first compound 0.000316 µM): 88.4% | viability, T/C (second compound 1 µM, first compound 0.001 µM): 92.2% | viability, T/C (second compound 1 µM, first compound 0.00316 µM): 88.8% | viability, T/C (second compound 1 µM, first compound 0.01 µM): 88.6% | viability, T/C [7]: 93.6% | viability, T/C [8]: 86.9%

C=CC(=O)N1CCN(c2nc(=O)n(-c3c(C)ccnc3C(C)C)c3nc(-c4c(O)cccc4F)c(F)cc23)C(C)C1 (stereo unspecified) + Cc1nc(NC(=O)N2CCCC2C(N)=O)sc1-c1ccnc(C(C)(C)C(F)(F)F)c1
IC50 (second compound 0.0316 µM): 4010 nM | IC50 (second compound 0.1 µM): 3480 nM | IC50 (second compound 0.316 µM): 2630 nM | IC50 (second compound 1 µM): 1910 nM | IC50 (second compound 3.16 µM): 1330 nM | IC50 (second compound 10 µM): 502 nM | viability, T/C [1]: 111% | viability, T/C [2]: 102% | viability, T/C (second compound 0.0316 µM, first compound 0.316 µM): 97.3% | viability, T/C (second compound 0.0316 µM, first compound 1 µM): 84.5% | viability, T/C (second compound 0.0316 µM, first compound 3.16 µM): 52.8% | viability, T/C (second compound 0.0316 µM, first compound 10 µM): 33.1% | viability, T/C [3]: 102% | viability, T/C [4]: 94% | viability, T/C (second compound 0.1 µM, first compound 0.316 µM): 96.8% | viability, T/C (second compound 0.1 µM, first compound 1 µM): 77.7% | viability, T/C (second compound 0.1 µM, first compound 3.16 µM): 52.4% | viability, T/C (second compound 0.1 µM, first compound 10 µM): 28.2% | viability, T/C [5]: 102% | viability, T/C [6]: 106% | viability, T/C (second compound 0.316 µM, first compound 0.316 µM): 93.6% | viability, T/C (second compound 0.316 µM, first compound 1 µM): 78.7% | viability, T/C (second compound 0.316 µM, first compound 3.16 µM): 44% | viability, T/C (second compound 0.316 µM, first compound 10 µM): 26.8% | viability, T/C [7]: 90.5% | viability, T/C [8]: 92.7% | viability, T/C (second compound 1 µM, first compound 0.316 µM): 84.4% | viability, T/C (second compound 1 µM, first compound 1 µM): 69% | viability, T/C (second compound 1 µM, first compound 3.16 µM): 35.4% | viability, T/C (second compound 1 µM, first compound 10 µM): 22.7% | viability, T/C (second compound 3.16 µM, first compound 0.0316 µM): 83.7% | viability, T/C (second compound 3.16 µM, first compound 0.1 µM): 85% | viability, T/C (second compound 3.16 µM, first compound 0.316 µM): 86.5% | viability, T/C (second compound 3.16 µM, first compound 1 µM): 55.7% | viability, T/C (second compound 3.16 µM, first compound 3.16 µM): 29.1% | viability, T/C (second compound 3.16 µM, first compound 10 µM): 17.6% | viability, T/C (second compound 10 µM, first compound 0.0316 µM): 73.9% | viability, T/C (second compound 10 µM, first compound 0.1 µM): 79.3% | viability, T/C (second compound 10 µM, first compound 0.316 µM): 61.6% | viability, T/C (second compound 10 µM, first compound 1 µM): 31.1% | viability, T/C (second compound 10 µM, first compound 3.16 µM): 12.9% | viability, T/C (second compound 10 µM, first compound 10 µM): 8.56%
